These results are taken from ChEMBL document CHEMBL3045439, “Isoforms of the heteropteran Nezara viridula ecdysone receptor: protein characterisation, RH5992 insecticide binding and homology modelling” (Pest Manag Sci, 2011).

What all share (format): protein-complex assay
The target of test [1] is T1, Ecdysone receptor (Lucilia cuprina, UniProt O18531+Q962I5).
T1 sequence (O18531 whole entry): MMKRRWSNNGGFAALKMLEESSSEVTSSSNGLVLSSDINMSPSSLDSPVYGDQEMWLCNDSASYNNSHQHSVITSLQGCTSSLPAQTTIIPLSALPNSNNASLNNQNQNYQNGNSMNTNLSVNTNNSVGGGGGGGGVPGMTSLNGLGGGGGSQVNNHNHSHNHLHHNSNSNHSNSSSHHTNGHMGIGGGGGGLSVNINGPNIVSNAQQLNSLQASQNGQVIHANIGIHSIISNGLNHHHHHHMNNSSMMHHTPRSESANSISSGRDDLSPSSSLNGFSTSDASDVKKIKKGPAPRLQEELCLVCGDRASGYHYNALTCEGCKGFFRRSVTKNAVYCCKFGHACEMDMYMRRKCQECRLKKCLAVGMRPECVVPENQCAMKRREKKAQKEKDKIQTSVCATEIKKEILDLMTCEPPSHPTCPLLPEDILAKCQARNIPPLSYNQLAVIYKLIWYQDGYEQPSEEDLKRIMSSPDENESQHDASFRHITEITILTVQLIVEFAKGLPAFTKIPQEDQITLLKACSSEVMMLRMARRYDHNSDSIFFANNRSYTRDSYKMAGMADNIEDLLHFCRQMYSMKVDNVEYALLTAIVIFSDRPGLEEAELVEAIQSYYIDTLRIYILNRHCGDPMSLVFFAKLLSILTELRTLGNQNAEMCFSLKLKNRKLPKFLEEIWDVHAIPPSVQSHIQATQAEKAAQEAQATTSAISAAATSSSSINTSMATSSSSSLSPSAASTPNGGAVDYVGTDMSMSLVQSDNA
T1 sequence (Q962I5 whole entry): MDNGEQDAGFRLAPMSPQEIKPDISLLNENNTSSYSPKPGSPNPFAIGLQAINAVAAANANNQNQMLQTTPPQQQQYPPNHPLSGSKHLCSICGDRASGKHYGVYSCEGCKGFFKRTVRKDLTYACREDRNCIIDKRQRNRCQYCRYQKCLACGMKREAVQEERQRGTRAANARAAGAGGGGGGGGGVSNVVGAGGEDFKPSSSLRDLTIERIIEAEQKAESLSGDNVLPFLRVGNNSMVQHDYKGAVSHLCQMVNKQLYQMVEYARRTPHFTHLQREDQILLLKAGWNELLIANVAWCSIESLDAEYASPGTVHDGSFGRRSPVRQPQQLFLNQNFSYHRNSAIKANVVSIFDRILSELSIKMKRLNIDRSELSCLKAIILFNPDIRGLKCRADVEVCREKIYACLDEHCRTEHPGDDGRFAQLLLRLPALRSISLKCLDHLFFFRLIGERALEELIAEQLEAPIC
Description: Binding affinity to Lucilia cuprina EcR.

Test [2] deals with Ecdysone receptor (Bemisia tabaci, UniProt A3EZJ4+A3EZJ5). Description: Binding affinity to Bemisia tabaci (sweet potato whitefly) ecdysone receptor (EcR).
Ecdysone receptor (Bemisia tabaci, UniProt A3EZJ4+A3EZJ5), sequence (A3EZJ4 1-297): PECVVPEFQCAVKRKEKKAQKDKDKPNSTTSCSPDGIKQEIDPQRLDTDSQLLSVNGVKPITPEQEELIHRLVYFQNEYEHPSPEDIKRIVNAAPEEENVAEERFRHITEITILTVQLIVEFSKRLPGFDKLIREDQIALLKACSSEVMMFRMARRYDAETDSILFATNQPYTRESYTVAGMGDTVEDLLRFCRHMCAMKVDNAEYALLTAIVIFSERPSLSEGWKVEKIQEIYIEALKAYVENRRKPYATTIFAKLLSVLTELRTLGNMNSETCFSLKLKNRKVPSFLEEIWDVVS
Ecdysone receptor (Bemisia tabaci, UniProt A3EZJ4+A3EZJ5), sequence (A3EZJ5 1-251): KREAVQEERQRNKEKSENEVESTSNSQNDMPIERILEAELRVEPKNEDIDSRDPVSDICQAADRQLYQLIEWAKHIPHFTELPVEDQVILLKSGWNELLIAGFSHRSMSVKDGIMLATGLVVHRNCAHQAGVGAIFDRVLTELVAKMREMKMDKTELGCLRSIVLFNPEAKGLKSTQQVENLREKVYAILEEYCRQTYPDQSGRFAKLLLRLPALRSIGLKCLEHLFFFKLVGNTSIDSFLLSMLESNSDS
Test [3] addresses T2, Ecdysone receptor (Aedes aegypti, UniProt P49880+Q9GSG8).
T2 sequence (P49880 whole entry): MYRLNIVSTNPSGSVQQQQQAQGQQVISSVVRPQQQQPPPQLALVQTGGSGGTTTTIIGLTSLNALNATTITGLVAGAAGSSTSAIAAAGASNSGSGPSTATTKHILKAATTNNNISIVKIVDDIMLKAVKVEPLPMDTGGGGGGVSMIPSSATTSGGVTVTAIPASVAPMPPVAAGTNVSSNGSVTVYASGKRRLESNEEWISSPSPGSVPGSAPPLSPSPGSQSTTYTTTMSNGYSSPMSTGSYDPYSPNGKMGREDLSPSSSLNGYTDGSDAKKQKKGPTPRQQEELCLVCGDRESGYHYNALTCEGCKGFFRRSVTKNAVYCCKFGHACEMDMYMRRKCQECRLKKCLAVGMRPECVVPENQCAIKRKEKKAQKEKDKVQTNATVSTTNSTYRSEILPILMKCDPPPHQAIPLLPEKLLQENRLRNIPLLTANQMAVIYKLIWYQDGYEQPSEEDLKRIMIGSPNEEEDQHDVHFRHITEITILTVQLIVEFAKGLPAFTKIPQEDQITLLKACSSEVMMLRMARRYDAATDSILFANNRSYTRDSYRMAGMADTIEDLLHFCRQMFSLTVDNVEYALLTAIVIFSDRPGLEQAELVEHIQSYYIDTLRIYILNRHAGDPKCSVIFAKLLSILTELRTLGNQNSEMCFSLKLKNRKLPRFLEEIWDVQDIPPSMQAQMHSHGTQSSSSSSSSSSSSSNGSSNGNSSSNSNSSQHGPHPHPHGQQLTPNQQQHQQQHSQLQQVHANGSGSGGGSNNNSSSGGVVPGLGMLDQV
T2 sequence (Q9GSG8 whole entry): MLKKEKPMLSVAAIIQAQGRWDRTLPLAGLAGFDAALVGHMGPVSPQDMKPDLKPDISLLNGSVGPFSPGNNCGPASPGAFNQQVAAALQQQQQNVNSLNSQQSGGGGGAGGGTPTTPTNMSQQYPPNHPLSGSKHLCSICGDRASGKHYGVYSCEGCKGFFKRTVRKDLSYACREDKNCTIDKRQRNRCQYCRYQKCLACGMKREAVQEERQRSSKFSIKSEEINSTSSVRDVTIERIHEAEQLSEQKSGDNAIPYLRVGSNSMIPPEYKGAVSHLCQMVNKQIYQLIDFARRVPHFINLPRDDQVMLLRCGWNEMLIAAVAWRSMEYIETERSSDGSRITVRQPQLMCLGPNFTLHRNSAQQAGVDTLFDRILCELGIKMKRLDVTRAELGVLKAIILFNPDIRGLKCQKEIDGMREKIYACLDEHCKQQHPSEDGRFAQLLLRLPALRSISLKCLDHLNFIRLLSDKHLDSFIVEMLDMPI
Nature of the test: Binding affinity to Aedes aegypti EcR.

A value given as a limit tells only on which side of the number the result lay.

`CCc1ccc(C(=O)NN(C(=O)c2cc(C)cc(C)c2)C(C)(C)C)cc1` [TEBUFENOZIDE]: the results for the Ki at Ecdysone receptor [1], on Ecdysone receptor [2] and at Ecdysone receptor [3] were 158 nM, above 501 µM and 25.1 nM, respectively.
